Assay results from patent US11723361B2, “Antimicrobial composition having efficacy against endospores” (Next Science IP Holdings Pty Ltd, priority 2015, dated 2023).

Test: Peracetic acid titrations (pH)
Assay type: physicochemical
Description: Two peracetic acid solutions were prepared by adding distilled water to a flask containing peracetic acid. The concentration of one of the solutions was 5% (w/v) while that of the other was 10% (w/v). The calculated effective solute concentrations for these solutions were 1.97 and 3.95 Osm/L, respectively.
To a 50 mL beaker was added 20 mL distilled water. A cleaned, rinsed and dried probe from a calibrated, temperature compensating pH meter was lowered into the beaker. Sequential aliquots of the peracetic acid solution then were added to the beaker, with pH readings after each. The titrations were performed at room temperature.

Q: Which “pH of water after addition” value (1 mL (5% by volume) of either 5% or 10% (w/v) solution) does the source give for `CC(=O)OO` [Peracetic acid, peracetic acid] here?
A: below 2

Q: And the pH (5% (w/v) solution, 0.25 mL added to 20 mL distilled water, room temperature)?
A: 2.42

Q: What about the pH (5% (w/v) solution, 0.50 mL added to 20 mL distilled water, room temperature) of the same molecule?
A: 2.17

Q: What about the pH (5% (w/v) solution, 0.75 mL added to 20 mL distilled water, room temperature) of the same molecule?
A: 2.00

Q: And the pH (5% (w/v) solution, 1.00 mL added to 20 mL distilled water, room temperature)?
A: 1.89

Q: What about the pH (5% (w/v) solution, 1.25 mL added to 20 mL distilled water, room temperature) of the same molecule?
A: 1.80

Q: And the pH (5% (w/v) solution, 1.50 mL added to 20 mL distilled water, room temperature)?
A: 1.74

Q: What about the pH (5% (w/v) solution, 1.75 mL added to 20 mL distilled water, room temperature) of the same molecule?
A: 1.68

Q: And the pH (5% (w/v) solution, 2.00 mL added to 20 mL distilled water, room temperature)?
A: 1.59

Q: And the pH (5% (w/v) solution, 2.25 mL added to 20 mL distilled water, room temperature)?
A: 1.56

Q: And the pH (5% (w/v) solution, 2.50 mL added to 20 mL distilled water, room temperature)?
A: 1.53

Q: And the pH (5% (w/v) solution, 2.75 mL added to 20 mL distilled water, room temperature)?
A: 1.48

Q: And the pH (5% (w/v) solution, 3.00 mL added to 20 mL distilled water, room temperature)?
A: 1.45

Q: And the pH (5% (w/v) solution, 3.25 mL added to 20 mL distilled water, room temperature)?
A: 1.42

Q: What about the pH (5% (w/v) solution, 3.50 mL added to 20 mL distilled water, room temperature) of the same molecule?
A: 1.41

Q: What about the pH (5% (w/v) solution, 3.75 mL added to 20 mL distilled water, room temperature) of the same molecule?
A: 1.38

Q: And the pH (5% (w/v) solution, 4.00 mL added to 20 mL distilled water, room temperature)?
A: 1.34

Q: What about the pH (5% (w/v) solution, 4.25 mL added to 20 mL distilled water, room temperature) of the same molecule?
A: 1.30

Q: And the pH (5% (w/v) solution, 4.50 mL added to 20 mL distilled water, room temperature)?
A: 1.28

Q: And the pH (5% (w/v) solution, 4.75 mL added to 20 mL distilled water, room temperature)?
A: 1.26

Q: And the pH (5% (w/v) solution, 5.00 mL added to 20 mL distilled water, room temperature)?
A: 1.25

Q: What about the pH (10% (w/v) solution, 0.1 mL added to 20 mL distilled water, room temperature) of the same molecule?
A: 2.74

Q: What about the pH (10% (w/v) solution, 0.2 mL added to 20 mL distilled water, room temperature) of the same molecule?
A: 2.48

Q: And the pH (10% (w/v) solution, 0.3 mL added to 20 mL distilled water, room temperature)?
A: 2.33

Q: What about the pH (10% (w/v) solution, 0.4 mL added to 20 mL distilled water, room temperature) of the same molecule?
A: 2.22

Q: And the pH (10% (w/v) solution, 0.5 mL added to 20 mL distilled water, room temperature)?
A: 2.14

Q: What about the pH (10% (w/v) solution, 0.6 mL added to 20 mL distilled water, room temperature) of the same molecule?
A: 2.07

Q: And the pH (10% (w/v) solution, 0.7 mL added to 20 mL distilled water, room temperature)?
A: 2.00

Q: And the pH (10% (w/v) solution, 0.8 mL added to 20 mL distilled water, room temperature)?
A: 1.95

Q: And the pH (10% (w/v) solution, 0.9 mL added to 20 mL distilled water, room temperature)?
A: 1.91

Q: And the pH (10% (w/v) solution, 1.0 mL added to 20 mL distilled water, room temperature)?
A: 1.86

Q: What about the pH (10% (w/v) solution, 1.1 mL added to 20 mL distilled water, room temperature) of the same molecule?
A: 1.83

Q: And the pH (10% (w/v) solution, 1.2 mL added to 20 mL distilled water, room temperature)?
A: 1.79

Q: And the pH (10% (w/v) solution, 1.3 mL added to 20 mL distilled water, room temperature)?
A: 1.76

Q: What about the pH (10% (w/v) solution, 1.4 mL added to 20 mL distilled water, room temperature) of the same molecule?
A: 1.73

Q: And the pH (10% (w/v) solution, 1.5 mL added to 20 mL distilled water, room temperature)?
A: 1.70

Q: What about the pH (10% (w/v) solution, 1.6 mL added to 20 mL distilled water, room temperature) of the same molecule?
A: 1.67

Q: And the pH (10% (w/v) solution, 1.7 mL added to 20 mL distilled water, room temperature)?
A: 1.65

Q: And the pH (10% (w/v) solution, 1.8 mL added to 20 mL distilled water, room temperature)?
A: 1.62

Q: And the pH (10% (w/v) solution, 1.9 mL added to 20 mL distilled water, room temperature)?
A: 1.60

Q: What about the pH (10% (w/v) solution, 2.0 mL added to 20 mL distilled water, room temperature) of the same molecule?
A: 1.58

Q: What about the “asymptotic pH” value (either 5% or 10% (w/v) acid solution) of the same molecule?
A: ~1.1±0.1

Q: And the pH (solutions of at least 2.5% (w/v), according to the tabulated data)?
A: no more than 1.25

Q: What about the “pH of water after addition” value (tiny aliquot, less than 1% by volume, of either 5% or 10% (w/v) solution) of the same molecule?
A: below 3
